Data on two compounds can be found in US20250325655A1, “VACCINE ADJUVANT, AND PREPARATION METHOD THEREFOR AND USE THEREOF” (CHENGDU MAXVAX BIOTECHNOLOGY LLC, priority 2021, published 2025).

For series [1] the following is noted: cancer patients, QS-21 dose 100~200 μg, cited from earlier work.
Series [2] in a line: Toxicology studies of the present product. The settings on record: poly (I:C) adsorbed onto the mixed liposomes. The source says:
In order to maintain stability of physical properties of products, the mixed liposomes containing the cationic liposomes and the neutral liposomes (consisting of […]) were chosen in the present disclosure to adsorb poly (I:C). Poly (I:C) adsorbed by the intramuscular administered mixed liposomes could be passively or actively delivered to antigen presenting cells (APCs), to limit its interaction with non-phagocytic cells, and regulate systemic secretion of cytokines generated thereby.

On to `CCC(C)C(CC(O)CC(=O)O[C@@H]1[C@H](O)[C@H](C)O[C@H](OC(=O)[C@@H]2CC(C)(C)C[C@@H]3C4=CCC5[C@@]6(C)CC[C@H](O[C@@H]7O[C@H](C(=O)O)[C@@H](O)[C@H](O[C@H]8OC[C@@H](O)[C@H](O)[C@H]8O)[C@H]7O[C@@H]7O[C@H](CO)[C@H](O)[C@H](O)[C@H]7O)[C@@](C)(C=O)[C@@H]6CC[C@@]5(C)[C@]4(C)C[C@@H](O)C32)[C@H]1O[C@@H]1O[C@@H](C)[C@H](O[C@H]2OC[C@@H](O)[C@H](O[C@H]3OC[C@](O)(CO)[C@H]3O)[C@H]2O)[C@@H](O)[C@H]1O)OC(=O)CC(O)CC(O[C@@H]1O[C@@H](CO)[C@H](O)[C@H]1O)C(C)CC` (stereo partly drawn) [QS-21, Quillaja saponaria saponin 21], for which the “erythema and induration at the injection site” value in series [1] (most patients) is given as 2-10 cm. The dose-limiting toxicity result in series [1] is “No dose-limiting toxicity”. Regarding “polyinosinic: polycytidylic acid [poly (I:C)]”, the safety result in series [2] is “can effectively improve its safety”.
